The molecules below were run against T1, OGA (Homo sapiens, UniProt O60502) (assay: OGA cellular assay (ICC detection of O-GlcNAcylated proteins in HEK293 cells inducible for P301L mutant human Tau)). Settings: HEK293, HEK293 cells inducible for P301L mutant human Tau, maximum = Thiamet G 200 uM.
T1 construct: HEK293 cells inducible for P301L mutant human Tau (isoform 2N4R) were established at Janssen; endogenous in cells; host or cells: HEK293 cells inducible for P301L mutant human Tau (2N4R)
T1 sequence (O60502 1-916): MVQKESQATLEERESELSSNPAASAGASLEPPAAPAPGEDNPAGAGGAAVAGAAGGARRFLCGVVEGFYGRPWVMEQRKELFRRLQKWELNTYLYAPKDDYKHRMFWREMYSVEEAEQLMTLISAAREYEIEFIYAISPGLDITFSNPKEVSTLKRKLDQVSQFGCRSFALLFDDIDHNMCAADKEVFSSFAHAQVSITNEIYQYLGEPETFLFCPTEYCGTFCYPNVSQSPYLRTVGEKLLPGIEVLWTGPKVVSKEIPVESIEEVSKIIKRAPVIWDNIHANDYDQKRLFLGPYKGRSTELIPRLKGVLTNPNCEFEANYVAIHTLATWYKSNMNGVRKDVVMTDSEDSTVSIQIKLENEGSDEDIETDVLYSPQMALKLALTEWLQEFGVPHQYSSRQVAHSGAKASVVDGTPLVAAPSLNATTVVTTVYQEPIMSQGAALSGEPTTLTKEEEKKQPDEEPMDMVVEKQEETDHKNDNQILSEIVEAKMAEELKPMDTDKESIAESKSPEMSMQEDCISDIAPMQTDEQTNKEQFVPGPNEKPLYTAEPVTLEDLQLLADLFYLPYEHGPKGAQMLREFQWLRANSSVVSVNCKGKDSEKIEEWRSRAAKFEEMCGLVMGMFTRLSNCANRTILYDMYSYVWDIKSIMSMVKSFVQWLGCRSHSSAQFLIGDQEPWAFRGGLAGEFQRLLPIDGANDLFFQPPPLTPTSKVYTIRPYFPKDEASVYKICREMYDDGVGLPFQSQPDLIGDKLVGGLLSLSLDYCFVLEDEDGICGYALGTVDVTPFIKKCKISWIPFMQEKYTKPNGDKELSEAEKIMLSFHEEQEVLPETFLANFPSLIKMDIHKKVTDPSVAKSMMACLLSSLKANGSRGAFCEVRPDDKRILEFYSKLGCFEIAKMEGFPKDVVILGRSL
Assay type: cell-based
Procedure: HEK293 cells inducible for P301L mutant human Tau (isoform 2N4R) were established at Janssen. Thiamet-G was used for both plate validation (high control) and as reference compound (reference EC50 assay validation). OGA inhibition is evaluated through the immunocytochemical (ICC) detection of O-GlcNAcylated proteins by the use of a monoclonal antibody (CTD110.6; Cell Signaling, #9875) detecting 0-GlcNAcylated residues as previously described (Dorfmueller et al. 2010 Chemistry & biology, 17:1250). Inhibition of OGA will result in an increase of O-GlcNAcylated protein levels resulting in an increased signal in the experiment. Cell nuclei are stained with Hoechst to give a cell culture quality control and a rough estimate of immediate compounds toxicity, if any. ICC pictures are imaged with a Perkin Elmer Opera Phenix plate microscope and quantified with the provided software Perkin Elmer Harmony 4.1.
Cells were propagated in DMEM high Glucose (Sigma, #D5796) following standard procedures. 2 days before the cell assay cells are split, counted and seeded in Poly-D-Lysine (PDL) coated 96-wells (Greiner, #655946) plate at a cell density of 12,000 cells per cm^2 (4,000 cells per well) in 100 μl of Assay Medium (Low Glucose medium is used to reduce basal levels of GlcNAcylation) (Park et al. 2014 The Journal of biological chemistry 289:13519). At the day of compound test medium from assay plates was removed and replenished with 90 μl of fresh Assay Medium. 10 μl of compounds at a 10fold final concentration were added to the wells. Plates were centrifuged shortly before incubation in the cell incubator for 6 hours. DMSO concentration was set to 0.2%. Medium is discarded by applying vacuum. For staining of cells medium was removed and cells washed once with 100 μl D-PBS (Sigma, #D8537). From next step onwards unless other stated assay volume was always 50 μl and incubation was performed without agitation and at room temperature. Cells were fixed in 50 μl of a 4% paraformaldehyde (PFA, Alpha aesar, #043368) PBS solution for 15 minutes at room temperature. […] Before analysis samples were washed 2 times manually for 5 minutes in ICC base buffer.
Imaging is performed using Perkin Elmer Phenix Opera using a water 20× objective and recording 9 fields per well. Intensity readout at 488 nm is used as a measure of O-GlcNAcylation level of total proteins in wells. To assess potential toxicity of compounds nuclei were counted using the Hoechst staining. IC50-values are calculated using parametric non-linear regression model fitting. As a maximum inhibition Thiamet G at a 200 uM concentration is present on each plate. In addition, a concentration response of Thiamet G is calculated on each plate.

Emax | SMILES
-2% | COc1cc(C[C@@H]2CCN(C(C)c3ccc4sc(C)nc4n3)C2)cc(C)n1 (single isomer, unassigned) [Compound 97]
92% | Cc1cc(NCC2CCCN(C(C)c3ccc4sc(C)nc4n3)C2)cc(C)n1 (single isomer, unassigned) [Compound 106]
59% | Cc1cc(C[C@H]2CCCN(Cc3ccc4[nH]c(C)nc4n3)C2)cc(C)n1 [Compound 9]
81% | Cc1cc(C[C@H]2CCCN([C@H](C)c3ccc4oc(C)nc4n3)C2)cc(C(F)(F)F)n1 [Compound 24a]
85% | Cc1cc(C[C@H]2CCCN([C@H](C)c3ccc4oc(C)nc4n3)C2)cc(OC(F)(F)F)n1 [Compound 25a]
2% | Cc1cc(C[C@H]2CCCN(Cc3cnc4nc(C)oc4c3)C2)cc(C)n1 [Compound 37]
49% | Cc1cc(OC2CCCN(C(C)c3ccc4sc(C)nc4n3)C2)cc(C)n1 (centres unmarked) [Compound 40]
-2% | Cc1cc(OC[C@H]2CCCN([C@@H](C)c3ccc4sc(C)nc4n3)C2)nc(C)n1 [Compound 49a]
70% | Cc1cc(OC[C@H]2CCCN([C@H](C)c3ccc4sc(C)nc4n3)C2)nc(C)n1 [Compound 49b]
11% | Cc1cc(C[C@@H]2CCN([C@H](C)c3cc4nc(C)sc4cc3F)C2)cc(C)n1 [Compound 59]
66% | Cc1cc(C[C@@H]2CCN([C@@H](C)c3cc4nc(C)sc4cc3F)C2)cc(C)n1 [Compound 60]
77% | Cc1cc(C[C@H]2CCN(C(C)c3cnc4nc(C)oc4c3)C2)cc(C)n1 (some centres unmarked) [Compound 63]
55% | Cc1cc(CO[C@H]2CCCN(C(C)c3ccc4sc(C)nc4n3)C2)cc(C)n1 (some centres unmarked) [Compound 66]
27% | Cc1cc(CO[C@@H]2CCCN(C(C)c3ccc4sc(C)nc4n3)C2)cc(C)n1 (some centres unmarked) [Compound 68]

Same assay, conditions: HEK293 cells inducible for P301L mutant human Tau, 6 hours incubation; read-out: Cellular hOGA; pEC50 (converted)

EC50 | SMILES
> 1000 nM | COc1cc(C[C@@H]2CCN(C(C)c3ccc4sc(C)nc4n3)C2)cc(C)n1 (single isomer, unassigned) [Compound 97]
6.31 nM | Cc1cc(NCC2CCCN(C(C)c3ccc4sc(C)nc4n3)C2)cc(C)n1 (single isomer, unassigned) [Compound 106]
631 nM | Cc1cc(C[C@H]2CCCN(Cc3ccc4[nH]c(C)nc4n3)C2)cc(C)n1 [Compound 9]
39.8 nM | Cc1cc(C[C@H]2CCCN([C@H](C)c3ccc4oc(C)nc4n3)C2)cc(C(F)(F)F)n1 [Compound 24a]
50.1 nM | Cc1cc(C[C@H]2CCCN([C@H](C)c3ccc4oc(C)nc4n3)C2)cc(OC(F)(F)F)n1 [Compound 25a]
> 1000 nM | Cc1cc(C[C@H]2CCCN(Cc3cnc4nc(C)oc4c3)C2)cc(C)n1 [Compound 37]
794 nM | Cc1cc(OC2CCCN(C(C)c3ccc4sc(C)nc4n3)C2)cc(C)n1 (centres unmarked) [Compound 40]
> 1000 nM | Cc1cc(OC[C@H]2CCCN([C@@H](C)c3ccc4sc(C)nc4n3)C2)nc(C)n1 [Compound 49a]
31.6 nM | Cc1cc(OC[C@H]2CCCN([C@H](C)c3ccc4sc(C)nc4n3)C2)nc(C)n1 [Compound 49b]
> 1000 nM | Cc1cc(C[C@@H]2CCN([C@H](C)c3cc4nc(C)sc4cc3F)C2)cc(C)n1 [Compound 59]
63.1 nM | Cc1cc(C[C@@H]2CCN([C@@H](C)c3cc4nc(C)sc4cc3F)C2)cc(C)n1 [Compound 60]
158 nM | Cc1cc(C[C@H]2CCN(C(C)c3cnc4nc(C)oc4c3)C2)cc(C)n1 (some centres unmarked) [Compound 63]
501 nM | Cc1cc(CO[C@H]2CCCN(C(C)c3ccc4sc(C)nc4n3)C2)cc(C)n1 (some centres unmarked) [Compound 66]
> 1000 nM | Cc1cc(CO[C@@H]2CCCN(C(C)c3ccc4sc(C)nc4n3)C2)cc(C)n1 (some centres unmarked) [Compound 68]

The molecules below were run against T2, recombinant human Meningioma Expressed Antigen 5 (MGEA5), also referred to as O-GlcNAcase (OGA) (Homo sapiens, UniProt O60502) (assay: OGA biochemical assay (inhibition of FM-GlcNAc hydrolysis, fluorescence)). Settings: FM-GlcNAc substrate, 6 h at room temperature, read-out: Enzymatic hOGA, pIC50 (converted).
T2 construct: Full length OGA enzyme was purchased at OriGene (cat #TP322411); purchased OriGene TP322411
T2 sequence (O60502 1-916): T1 sequence (O60502 1-916)
Method in brief: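 Full-length OGA (2 nM) pre-incubated 60 min at room temperature with compound, then FM-GlcNAc (100 uM final) hydrolysed 6 h at room temperature in 200 mM citrate/phosphate pH 7.2 with 0.005% Tween-20. Stopped with carbonate pH 11.0; fluorescein read at ex 485/em 538 nm. IC50 and Hill coefficient from curve fit between no-inhibitor and saturating-standard controls.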

IC50 | SMILES
6310 nM | COc1cc(C[C@@H]2CCN(C(C)c3ccc4sc(C)nc4n3)C2)cc(C)n1 (single isomer, unassigned) [Compound 97]
5.01 nM | Cc1cc(NCC2CCCN(C(C)c3ccc4sc(C)nc4n3)C2)cc(C)n1 (single isomer, unassigned) [Compound 106]
200 nM | Cc1cc(C[C@H]2CCCN(Cc3ccc4[nH]c(C)nc4n3)C2)cc(C)n1 [Compound 9]
7.94 nM | Cc1cc(C[C@H]2CCCN([C@H](C)c3ccc4oc(C)nc4n3)C2)cc(C(F)(F)F)n1 [Compound 24a]
3.98 nM | Cc1cc(C[C@H]2CCCN([C@H](C)c3ccc4oc(C)nc4n3)C2)cc(OC(F)(F)F)n1 [Compound 25a]
7940 nM | Cc1cc(C[C@H]2CCCN(Cc3cnc4nc(C)oc4c3)C2)cc(C)n1 [Compound 37]
12.6 nM | Cc1cc(OC2CCCN(C(C)c3ccc4sc(C)nc4n3)C2)cc(C)n1 (centres unmarked) [Compound 40]
2000 nM | Cc1cc(OC[C@H]2CCCN([C@@H](C)c3ccc4sc(C)nc4n3)C2)nc(C)n1 [Compound 49a]
6.31 nM | Cc1cc(OC[C@H]2CCCN([C@H](C)c3ccc4sc(C)nc4n3)C2)nc(C)n1 [Compound 49b]
200 nM | Cc1cc(C[C@@H]2CCN([C@H](C)c3cc4nc(C)sc4cc3F)C2)cc(C)n1 [Compound 59]
2 nM | Cc1cc(C[C@@H]2CCN([C@@H](C)c3cc4nc(C)sc4cc3F)C2)cc(C)n1 [Compound 60]
100 nM | Cc1cc(C[C@H]2CCN(C(C)c3cnc4nc(C)oc4c3)C2)cc(C)n1 (some centres unmarked) [Compound 63]
39.8 nM | Cc1cc(CO[C@H]2CCCN(C(C)c3ccc4sc(C)nc4n3)C2)cc(C)n1 (some centres unmarked) [Compound 66]
126 nM | Cc1cc(CO[C@@H]2CCCN(C(C)c3ccc4sc(C)nc4n3)C2)cc(C)n1 (some centres unmarked) [Compound 68]

Same assay, conditions: FM-GlcNAc substrate, maximal effect, read-out: Enzymatic Emax (%)

Emax | SMILES
56% | COc1cc(C[C@@H]2CCN(C(C)c3ccc4sc(C)nc4n3)C2)cc(C)n1 (single isomer, unassigned) [Compound 97]
99% | Cc1cc(NCC2CCCN(C(C)c3ccc4sc(C)nc4n3)C2)cc(C)n1 (single isomer, unassigned) [Compound 106]
96% | Cc1cc(C[C@H]2CCCN(Cc3ccc4[nH]c(C)nc4n3)C2)cc(C)n1 [Compound 9]
99% | Cc1cc(C[C@H]2CCCN([C@H](C)c3ccc4oc(C)nc4n3)C2)cc(C(F)(F)F)n1 [Compound 24a]
101% | Cc1cc(C[C@H]2CCCN([C@H](C)c3ccc4oc(C)nc4n3)C2)cc(OC(F)(F)F)n1 [Compound 25a]
55% | Cc1cc(C[C@H]2CCCN(Cc3cnc4nc(C)oc4c3)C2)cc(C)n1 [Compound 37]
99% | Cc1cc(OC2CCCN(C(C)c3ccc4sc(C)nc4n3)C2)cc(C)n1 (centres unmarked) [Compound 40]
84% | Cc1cc(OC[C@H]2CCCN([C@@H](C)c3ccc4sc(C)nc4n3)C2)nc(C)n1 [Compound 49a]
99% | Cc1cc(OC[C@H]2CCCN([C@H](C)c3ccc4sc(C)nc4n3)C2)nc(C)n1 [Compound 49b]
98% | Cc1cc(C[C@@H]2CCN([C@H](C)c3cc4nc(C)sc4cc3F)C2)cc(C)n1 [Compound 59]
99% | Cc1cc(C[C@@H]2CCN([C@@H](C)c3cc4nc(C)sc4cc3F)C2)cc(C)n1 [Compound 60]
103% | Cc1cc(C[C@H]2CCN(C(C)c3cnc4nc(C)oc4c3)C2)cc(C)n1 (some centres unmarked) [Compound 63]
100% | Cc1cc(CO[C@H]2CCCN(C(C)c3ccc4sc(C)nc4n3)C2)cc(C)n1 (some centres unmarked) [Compound 66]
98% | Cc1cc(CO[C@@H]2CCCN(C(C)c3ccc4sc(C)nc4n3)C2)cc(C)n1 (some centres unmarked) [Compound 68]

Source: patent US20210115040A1, “OGA INHIBITOR COMPOUNDS” (Janssen Pharmaceutica NV, priority 2018, published 2021)
